Measured values reported in patent US5622950A, “Pyrrolo-pyridine derivatives” (Merck, Sharp & Dohme Ltd., priority 1993, dated 1997).

Experiments:
[1] = target: T1, human dopamine D4 receptor subtype (Homo sapiens, UniProt P21917); test: [3H]-Spiperone binding (displacement), human dopamine D4 receptor subtype; conditions: selectivity ratio from Ki values for D4 and D2 subtypes
T1 sequence (P21917 1-419): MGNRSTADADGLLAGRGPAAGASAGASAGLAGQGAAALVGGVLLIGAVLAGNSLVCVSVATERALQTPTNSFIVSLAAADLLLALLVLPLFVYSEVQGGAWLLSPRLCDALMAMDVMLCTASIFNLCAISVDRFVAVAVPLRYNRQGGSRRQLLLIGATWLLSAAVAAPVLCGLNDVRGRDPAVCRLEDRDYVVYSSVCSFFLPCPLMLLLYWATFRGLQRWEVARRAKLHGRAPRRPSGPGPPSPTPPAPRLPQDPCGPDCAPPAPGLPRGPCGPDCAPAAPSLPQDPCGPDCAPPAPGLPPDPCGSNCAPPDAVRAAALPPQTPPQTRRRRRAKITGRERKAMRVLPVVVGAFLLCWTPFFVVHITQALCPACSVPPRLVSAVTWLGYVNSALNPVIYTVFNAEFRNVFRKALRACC

[2] = target: T2, human dopamine D2 receptor subtype (Homo sapiens, UniProt P14416); test: [3H]-Spiperone binding (displacement), human dopamine D2 receptor subtype; conditions: human dopamine D2 receptor subtype expressed in clonal cell lines
T2 construct: expressed in transfected cells
T2 sequence (P14416 whole entry): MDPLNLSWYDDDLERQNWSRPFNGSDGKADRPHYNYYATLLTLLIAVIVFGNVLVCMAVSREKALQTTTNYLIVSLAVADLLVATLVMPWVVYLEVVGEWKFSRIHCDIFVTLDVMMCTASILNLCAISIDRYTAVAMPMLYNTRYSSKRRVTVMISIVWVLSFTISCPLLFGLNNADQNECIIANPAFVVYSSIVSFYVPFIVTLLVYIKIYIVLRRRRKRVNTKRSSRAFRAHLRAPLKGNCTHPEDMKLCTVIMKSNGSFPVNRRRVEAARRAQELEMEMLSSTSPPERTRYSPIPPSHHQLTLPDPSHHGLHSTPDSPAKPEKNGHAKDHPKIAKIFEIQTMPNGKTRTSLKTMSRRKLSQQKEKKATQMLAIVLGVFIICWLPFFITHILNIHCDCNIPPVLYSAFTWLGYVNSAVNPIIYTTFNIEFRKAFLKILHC

[3] = tested on: spontaneous motor activity; test: Sedation: effects on spontaneous motor activity of rats in novel cages equipped with photocells (number of cage crossings); type: in vivo; conditions: rat
Source text: Representative compounds according to the invention have been tested for their effects on spontaneous motor activity occasioned by placing rats in novel cages equipped with photocells in order to determine the number of cage crossings. This is an art-recognised model of the sedation potential of a given test compound.

[4] = tested on: apomorphine-induced stereotypy; test: Extrapyramidal disorders: effect on apomorphine-induced stereotypy in the rat; type: in vivo
Source text: Representative compounds according to the invention have been tested for their effect on apomorphine-induced stereotypy in the rat. This is an art-recognised model of the potential to induce extrapyramidal side-effects.

Question: For `COc1ccc(N2CCN(Cc3c[nH]c4ncccc34)CC2)cc1` [Example 2, 3-(4-[4-Methoxyphenyl]piperazin-1-yl)methyl-1H-pyrrolo [2,3-b]pyridine], which “D4:D2 ratio” value [1] is on record?
Answer: The value was “greater than 1150”.

Question: And the Ki [2]?
Answer: The Ki was > 1.5 µM.

Question: `Clc1ccc(N2CCN(Cc3c[nH]c4ncccc34)CC2)cc1` [Example 5, 3-(4-[4-Chlorophenyl]piperazin-1-yl)methyl-1H-pyrrolo [2,3-b]pyridine] was tested. Which “sedation (spontaneous motor activity)” value ([3]; doses of up to 10-30 mg/kg) did it give?
Answer: The value was “no evidence for sedation”.

Question: What about the “potential to induce extrapyramidal side-effects (apomorphine-induced stereotypy)” value ([4]; doses up to 1.0 mg/kg) of the same compound?
Answer: The value was “no potential to induce the extrapyramidal side-effects”.

Question: Which “sedation (spontaneous motor activity)” value ([3]; dose of 1 mg/kg) does the source give for `O=C(CCCN1CCC(O)(c2ccc(Cl)cc2)CC1)c1ccc(F)cc1` [haloperidol, reference compound] here?
Answer: The value was “marked sedation”.

Question: What about the “potential to elicit extrapyramidal side-effects (apomorphine-induced stereotypy)” value ([4]; doses of 0.5 and 1.0 mg/kg) of the same compound?
Answer: Its value is “significant potential to elicit extrapyramidal side-effects”.
